Assays:
[1] = target: T1, Serine/threonine-protein kinase/endoribonuclease IRE1 (Homo sapiens, UniProt O75460); assay: Inhibition of IRE1alpha (unknown origin) assessed as XBP-1 slicing luciferase activity incubated for 1 hr followed by stimulation with thapsigargin measured after 5 hrs by luciferase reporter gene assay
[2] = target: T1, Serine/threonine-protein kinase/endoribonuclease IRE1; assay: Competitive inhibition of IRE1alpha LKR domain (Q470 to L997 residues) (unknown origin) expressed in Sf9 insect cells using mini-XBP-1 stem-loop RNA as substrate and measured every 2 mins for 50 mins by FRET assay
[3] = target: Serine/threonine-protein kinase B-raf (Homo sapiens, UniProt P15056, V600E)
hERG (KCNH2) [4] = target: T2, hERG (KCNH2) (Homo sapiens, UniProt Q12809); assay: Inhibition of human ERG at 1 uM relative to control
hERG (KCNH2) [5] = target: T2, hERG (KCNH2); assay: Inhibition of human ERG at 10 uM relative to control

T1 sequence (O75460 whole entry, the tested form may be a part): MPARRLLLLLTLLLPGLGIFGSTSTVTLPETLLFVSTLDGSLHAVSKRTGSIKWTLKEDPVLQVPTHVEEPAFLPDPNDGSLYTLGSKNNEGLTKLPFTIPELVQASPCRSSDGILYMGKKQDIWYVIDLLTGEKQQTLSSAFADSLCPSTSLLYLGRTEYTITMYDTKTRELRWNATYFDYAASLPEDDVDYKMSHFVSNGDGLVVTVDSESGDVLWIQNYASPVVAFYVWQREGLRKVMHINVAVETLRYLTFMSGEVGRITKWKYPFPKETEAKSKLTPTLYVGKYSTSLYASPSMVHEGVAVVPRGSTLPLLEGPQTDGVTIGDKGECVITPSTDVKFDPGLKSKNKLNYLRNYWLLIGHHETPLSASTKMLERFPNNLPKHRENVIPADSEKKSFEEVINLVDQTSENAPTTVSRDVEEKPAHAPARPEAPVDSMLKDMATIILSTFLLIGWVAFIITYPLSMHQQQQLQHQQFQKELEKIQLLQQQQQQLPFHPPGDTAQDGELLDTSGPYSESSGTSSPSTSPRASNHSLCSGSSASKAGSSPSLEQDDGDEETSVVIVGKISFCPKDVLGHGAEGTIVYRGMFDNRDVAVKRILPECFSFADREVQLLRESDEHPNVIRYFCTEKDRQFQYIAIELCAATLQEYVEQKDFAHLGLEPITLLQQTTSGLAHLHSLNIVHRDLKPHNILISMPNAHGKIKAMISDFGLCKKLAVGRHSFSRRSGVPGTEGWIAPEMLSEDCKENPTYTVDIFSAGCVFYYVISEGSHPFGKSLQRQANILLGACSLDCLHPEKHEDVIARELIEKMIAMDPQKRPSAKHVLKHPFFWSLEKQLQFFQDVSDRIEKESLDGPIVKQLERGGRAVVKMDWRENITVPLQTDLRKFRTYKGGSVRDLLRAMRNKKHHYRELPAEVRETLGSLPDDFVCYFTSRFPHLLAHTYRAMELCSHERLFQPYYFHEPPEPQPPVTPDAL
Chain of Serine/threonine-protein kinase B-raf (P15056 2-766 V600E limits assumed): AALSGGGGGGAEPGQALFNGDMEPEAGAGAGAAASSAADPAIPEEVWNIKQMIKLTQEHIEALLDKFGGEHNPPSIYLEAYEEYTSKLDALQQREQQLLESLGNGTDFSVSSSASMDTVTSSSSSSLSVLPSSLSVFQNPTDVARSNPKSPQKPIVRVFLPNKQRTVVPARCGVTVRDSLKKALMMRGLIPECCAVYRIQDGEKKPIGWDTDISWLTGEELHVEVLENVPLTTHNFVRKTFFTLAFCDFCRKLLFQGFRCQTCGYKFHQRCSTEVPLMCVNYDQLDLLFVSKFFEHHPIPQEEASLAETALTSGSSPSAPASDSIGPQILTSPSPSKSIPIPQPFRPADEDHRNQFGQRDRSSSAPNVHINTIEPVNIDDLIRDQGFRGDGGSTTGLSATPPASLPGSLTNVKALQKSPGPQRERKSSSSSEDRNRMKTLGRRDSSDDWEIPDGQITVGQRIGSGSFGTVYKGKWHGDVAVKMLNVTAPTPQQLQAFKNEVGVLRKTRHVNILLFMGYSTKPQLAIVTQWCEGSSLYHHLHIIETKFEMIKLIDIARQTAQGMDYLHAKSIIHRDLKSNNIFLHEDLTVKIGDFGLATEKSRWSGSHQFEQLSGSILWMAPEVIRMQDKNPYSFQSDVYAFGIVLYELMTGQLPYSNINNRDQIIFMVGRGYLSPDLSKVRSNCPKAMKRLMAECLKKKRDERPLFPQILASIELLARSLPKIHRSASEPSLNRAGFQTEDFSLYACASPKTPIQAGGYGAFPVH
T2 sequence (Q12809 whole entry): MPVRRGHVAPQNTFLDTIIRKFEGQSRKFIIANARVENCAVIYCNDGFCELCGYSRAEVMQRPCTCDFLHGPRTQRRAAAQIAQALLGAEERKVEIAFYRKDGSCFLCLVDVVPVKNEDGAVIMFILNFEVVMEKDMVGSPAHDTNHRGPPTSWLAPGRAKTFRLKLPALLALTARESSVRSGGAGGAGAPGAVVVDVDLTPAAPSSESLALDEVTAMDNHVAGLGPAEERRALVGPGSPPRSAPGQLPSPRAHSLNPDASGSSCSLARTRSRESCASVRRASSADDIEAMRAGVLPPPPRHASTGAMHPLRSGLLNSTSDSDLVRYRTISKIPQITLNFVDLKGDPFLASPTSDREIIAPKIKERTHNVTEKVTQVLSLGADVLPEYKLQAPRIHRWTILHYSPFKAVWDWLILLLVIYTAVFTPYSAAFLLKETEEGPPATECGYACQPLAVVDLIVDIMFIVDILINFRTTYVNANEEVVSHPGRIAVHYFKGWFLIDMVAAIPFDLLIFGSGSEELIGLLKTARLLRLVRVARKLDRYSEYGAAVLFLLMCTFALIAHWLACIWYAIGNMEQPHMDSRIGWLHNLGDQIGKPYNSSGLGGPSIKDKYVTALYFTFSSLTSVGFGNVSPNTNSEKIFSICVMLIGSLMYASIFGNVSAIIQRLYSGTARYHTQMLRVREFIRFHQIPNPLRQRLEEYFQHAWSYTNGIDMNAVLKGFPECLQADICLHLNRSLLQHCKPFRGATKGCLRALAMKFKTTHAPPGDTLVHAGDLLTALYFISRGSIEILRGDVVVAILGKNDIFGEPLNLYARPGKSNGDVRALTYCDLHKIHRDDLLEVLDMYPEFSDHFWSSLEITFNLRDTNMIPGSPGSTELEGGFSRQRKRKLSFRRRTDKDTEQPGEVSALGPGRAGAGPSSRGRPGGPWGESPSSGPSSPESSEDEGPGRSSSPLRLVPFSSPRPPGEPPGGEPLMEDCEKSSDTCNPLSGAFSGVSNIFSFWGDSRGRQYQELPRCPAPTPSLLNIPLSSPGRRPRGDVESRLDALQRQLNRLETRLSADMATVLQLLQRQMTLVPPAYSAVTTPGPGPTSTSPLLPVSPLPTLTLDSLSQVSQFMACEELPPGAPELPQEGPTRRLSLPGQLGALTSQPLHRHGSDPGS

SMILES: Cc1nn(C)cc1-c1cc(C(=O)Nc2c(Cl)ccc(NS(=O)(=O)c3ccccc3Cl)c2F)c2ncnc(N)c2c1
- IC50 [1]: 48 nM
- IC50 [2]: 64 nM
- Ki [3]: 0.25 nM

SMILES: Nc1ncnc2c(C(=O)Nc3c(Cl)ccc(NS(=O)(=O)c4cc(F)ccc4F)c3F)cc(-c3cccnc3)cc12
- IC50 [1]: 4900 nM
- IC50 [2]: 47 nM
- Ki [3]: ≤ 0.08 nM

SMILES: Cc1nn(C)cc1-c1cc(C(=O)Nc2c(Cl)ccc(NS(=O)(=O)c3ccccc3F)c2F)c2ncnc(N)c2c1
- IC50 [1]: 44 nM
- IC50 [2]: 40 nM
- Ki [3]: ≤ 0.08 nM

SMILES: N[C@H]1CC[C@H](Nc2ncnc3c(C(=O)Nc4c(Cl)ccc(NS(=O)(=O)Cc5ccccc5)c4F)csc23)CC1
- IC50 [1]: 390 nM
- IC50 [2]: 30 nM
- Ki [3]: 55 nM

SMILES: Cc1cc(C(=O)Nc2c(Cl)ccc(NS(=O)(=O)c3cc(F)ccc3F)c2F)c2ncnc(NCCN)c2c1
- IC50 [1]: 31000 nM
- IC50 [2]: 920 nM
- Ki [3]: 5.2 nM

SMILES: N[C@H]1CC[C@H](Nc2ncnc3c(C(=O)Nc4c(Cl)ccc(NS(=O)(=O)c5cc(F)ccc5F)c4F)csc23)CC1
- IC50 [1]: 320 nM
- IC50 [2]: 24 nM
- Ki [3]: 1.4 nM

SMILES: Cc1cc(NS(=O)(=O)c2ccccc2Cl)c2ccccc2c1Oc1ncccc1-c1ccnc(N[C@H]2CC[C@H](N)CC2)n1
- IC50 [1]: 57 nM
- IC50 [2]: 4.2 nM

SMILES: Nc1ncnc2c(C(=O)Nc3c(Cl)ccc(NS(=O)(=O)c4cc(F)ccc4F)c3F)csc12
- IC50 [1]: 5300 nM
- IC50 [2]: 67 nM
- Ki [3]: ≤ 0.08 nM

SMILES: Cc1cc(C(=O)Nc2c(Cl)ccc(NS(=O)(=O)c3cc(F)ccc3F)c2F)c2ncnc(N[C@H]3CCCNC3)c2c1
- IC50 [1]: 9900 nM
- IC50 [2]: 670 nM

SMILES: Nc1ncnc2c(C(=O)Nc3c(Cl)ccc(NS(=O)(=O)N4CCCC4)c3F)cccc12
- IC50 [1]: 5580 nM
- IC50 [2]: 200 nM
- Ki [3]: 2.3 nM

SMILES: Cc1cc(C(=O)Nc2c(Cl)ccc(NS(=O)(=O)c3cc(F)ccc3F)c2F)c2ncnc(N[C@H]3CC[C@H](N)CC3)c2c1
- IC50 [1]: 19000 nM
- IC50 [2]: 700 nM
- Ki [3]: 340 nM

SMILES: Cc1cc(C(=O)Nc2c(Cl)ccc(NS(=O)(=O)c3cc(F)ccc3F)c2F)c2ncnc(N)c2c1
- IC50 [1]: 1100 nM
- IC50 [2]: 31 nM
- Ki [3]: ≤ 0.08 nM

SMILES: N[C@H]1CC[C@H](Nc2ncnc3c(C(=O)Nc4c(Cl)ccc(NS(=O)(=O)c5ccccc5Cl)c4F)csc23)CC1
- inhibition at 1 µM (hERG (KCNH2) [4]): 1.1%
- IC50 [1]: 120 nM
- IC50 [2]: 22 nM
- inhibition at 10 µM (hERG (KCNH2) [5]): 6.4%

SMILES: Cc1cc(C(=O)Nc2c(Cl)ccc(NS(=O)(=O)c3cc(F)ccc3F)c2F)c2ncnc(N[C@@H]3CCCNC3)c2c1
- IC50 [1]: 19000 nM
- IC50 [2]: 3500 nM
- Ki [3]: 70 nM
